# Where two headings read alike, the source gives them in different places.
# Target: human Nav1.8 (Homo sapiens, UniProt Q9Y5Y9)
# Test: SyncroPatch384PE assay (automated patch clamp)
# Format: cell-based
# Conditions: human Nav1.8/b3 CHO cells
# Protocol: Compounds were tested on recombinant human Nav1.8/b3 stably transfected CHO cells using the SyncroPatch384PE system (Nanion Technologies), an automated patch clamp device. Cells were cultured at 37° C./5% CO2 in Ham's F-12 supplemented with 10% fetal bovine serum, 100 U/mL penicillin G sodium, […] streptomycin sulfate and selection antibiotics (0.01 mg/mL Blasticidin, 0.4 mg/mL Zeocin and 0.25 mg/mL Hygromycin). On the day of the recordings, cells in culture dishes were washed twice with Hank's Balanced Salt Solution (HBSS) and treated with Accutase for approximately 20 minutes. Immediately before use in the SynchroPatch384PE using an 8-hole NPC-384 chip, the cells were washed in HBSS to remove the Accutase and re-suspended in extracellular solution. All experiments were performed at ambient temperature. Intracellular solution contained (mM): CsCl, 50; CsF, 90; MgCl2, 5; EGTA, 1; HEPES, 10; pH adjusted to 7.2 with CsOH. Extracellular solution contained (mM): NaCl, 137; KCl, 4.0; CaCl2), 3.8; MgCl2, 1; HEPES, 10; Glucose, 10; pH adjusted to 7.4 with NaOH. 100 nM tetrodotoxin (TTX) was added to the extracellular solution to block endogenous TTX-sensitive sodium currents.
# Compounds were tested in quadruplicate in 0.3% DMSO and 0.03% pluronic Acid. Compounds were diluted 1:3.33 in extracellular solution to create an 8-point concentration response curve. Each plate contained a historical positive control and up to ten compounds. 300 μM tetracaine and 0.3% DMSO+0.03% pluronic acid were used as high and low controls respectively.
# Whole cell patch clamp recordings were conducted according to Nanion's standard procedure for SyncroPatch384PE®. Cells were held at a holding potential of −120 mV. A depolarization step to 10 mV for 30 ms was applied (P1 measurement), followed by a hyperpolarization step to −100 mV for 100 ms. An inactivation step at −35 mV for 10 sec was applied before stepping to −100 mV for 20 ms, followed by a step to 10 mV for 30 ms (P2 measurement) and then back to −100 mV for 30 ms. Sweep interval was 15 sec. Following establishment of the whole-cell configuration in extracellular solution, cells were washed in extracellular solution containing 0.3% DMSO and 0.03% pluronic acid to stabilize the baseline current. Compounds were then applied by the SynchroPatch384 PE system into each well and the current was recorded for five minutes in extracellular solution, followed by application of tetracaine to achieve full block at the end of experiment. The potency of the compounds was assessed on two read-outs, resting state block (P1 measurement) or inactivated state block (P2 measurement) to obtain IC50 values. Values were normalized to high (tetracaine) and low (DMSO+pluronic acid) controls.
# Examples 1 to 219 and Examples 225 to 236 are assayed using SyncroPatch384PE assay described above.
# [1] = inactivated state block (P2 measurement), read-out: P2 IC50
# [2] = resting state block (P1 measurement), read-out: P1 IC50
# human Nav1.8, sequence (Q9Y5Y9 whole entry): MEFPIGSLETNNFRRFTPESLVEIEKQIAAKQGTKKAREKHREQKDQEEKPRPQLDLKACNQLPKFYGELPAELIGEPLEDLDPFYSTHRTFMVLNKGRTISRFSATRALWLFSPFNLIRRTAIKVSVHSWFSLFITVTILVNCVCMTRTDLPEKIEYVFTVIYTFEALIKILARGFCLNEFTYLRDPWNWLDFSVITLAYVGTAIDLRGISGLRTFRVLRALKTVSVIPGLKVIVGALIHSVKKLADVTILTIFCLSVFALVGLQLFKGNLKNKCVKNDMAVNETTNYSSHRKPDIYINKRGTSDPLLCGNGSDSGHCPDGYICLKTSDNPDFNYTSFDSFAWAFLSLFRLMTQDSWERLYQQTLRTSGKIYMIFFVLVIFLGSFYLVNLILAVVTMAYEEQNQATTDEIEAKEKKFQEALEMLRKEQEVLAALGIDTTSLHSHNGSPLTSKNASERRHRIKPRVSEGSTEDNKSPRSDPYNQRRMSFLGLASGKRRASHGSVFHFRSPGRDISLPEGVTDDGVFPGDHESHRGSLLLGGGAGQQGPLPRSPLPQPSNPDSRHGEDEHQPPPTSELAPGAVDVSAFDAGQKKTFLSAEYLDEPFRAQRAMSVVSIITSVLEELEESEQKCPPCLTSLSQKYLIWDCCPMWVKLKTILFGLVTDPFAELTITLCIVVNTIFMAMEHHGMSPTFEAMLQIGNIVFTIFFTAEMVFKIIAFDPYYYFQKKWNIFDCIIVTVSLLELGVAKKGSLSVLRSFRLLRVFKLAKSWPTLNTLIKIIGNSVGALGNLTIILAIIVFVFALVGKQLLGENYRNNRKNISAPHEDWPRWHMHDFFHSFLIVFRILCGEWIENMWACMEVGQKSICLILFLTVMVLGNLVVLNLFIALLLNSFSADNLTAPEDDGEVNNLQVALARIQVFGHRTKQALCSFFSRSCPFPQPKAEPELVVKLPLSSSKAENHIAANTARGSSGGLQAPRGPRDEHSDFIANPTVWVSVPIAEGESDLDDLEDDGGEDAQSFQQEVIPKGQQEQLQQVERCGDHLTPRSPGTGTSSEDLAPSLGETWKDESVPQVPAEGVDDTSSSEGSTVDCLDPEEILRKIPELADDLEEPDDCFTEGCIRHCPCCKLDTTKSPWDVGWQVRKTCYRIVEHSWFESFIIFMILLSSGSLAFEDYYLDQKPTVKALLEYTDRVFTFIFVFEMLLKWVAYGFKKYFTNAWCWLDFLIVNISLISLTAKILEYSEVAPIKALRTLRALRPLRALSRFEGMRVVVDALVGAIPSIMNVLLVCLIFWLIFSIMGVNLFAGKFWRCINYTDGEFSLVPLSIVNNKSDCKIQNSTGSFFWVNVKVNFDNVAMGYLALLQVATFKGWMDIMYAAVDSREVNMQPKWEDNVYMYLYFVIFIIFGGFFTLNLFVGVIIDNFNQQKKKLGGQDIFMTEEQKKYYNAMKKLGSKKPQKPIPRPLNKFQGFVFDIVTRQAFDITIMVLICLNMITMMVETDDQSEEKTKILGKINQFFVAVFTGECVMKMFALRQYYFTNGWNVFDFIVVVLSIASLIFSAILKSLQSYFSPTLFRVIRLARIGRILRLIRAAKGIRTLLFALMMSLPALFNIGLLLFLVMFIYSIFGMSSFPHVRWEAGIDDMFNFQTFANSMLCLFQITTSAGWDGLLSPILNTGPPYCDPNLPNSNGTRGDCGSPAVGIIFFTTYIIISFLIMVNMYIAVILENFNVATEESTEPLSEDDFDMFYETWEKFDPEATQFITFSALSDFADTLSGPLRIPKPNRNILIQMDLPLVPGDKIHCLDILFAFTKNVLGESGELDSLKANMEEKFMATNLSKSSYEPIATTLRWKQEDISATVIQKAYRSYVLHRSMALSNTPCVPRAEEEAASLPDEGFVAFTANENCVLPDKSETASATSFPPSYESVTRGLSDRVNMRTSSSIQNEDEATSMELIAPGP
IC50 [1] [nM],IC50 [2] [nM],Compound
> 200,> 200,"Cc1c(C2CC2)nnc(N2CCCC(F)(F)CC2)c1C(=O)Nc1cccc(S(C)(=N)=O)c1 (stereo not drawn) [Example 22, 6-cyclopropyl-3-(4,4-difluoroazepan-1-yl)-5-methyl-N-(3-(S-methylsulfonimidoyl)phenyl)pyridazine-4-carboxamide]"
≤ 5,≤ 5,"Cc1nc(N2CCC3(CC2)CC3)c(C(=O)Nc2cccc(S(C)(=N)=O)c2)cc1C(F)(F)F (stereo not drawn) [Example 25, 6-Methyl-N-(3-(S-methylsulfonimidoyl)phenyl)-2-(6-azaspiro[2.5]octan-6-yl)-5-(trifluoromethyl)nicotinamide]"
≤ 5,≤ 5,"Cc1nc(N2CCC3(CC2)CC3)c(C(=O)Nc2cccc([S@](C)(=N)=O)c2)cc1Cl [Example 26, (R)-5-Chloro-6-methyl-N-(3-(S-methylsulfonimidoyl)phenyl)-2-(6-azaspiro[2.5]octan-6-yl)nicotinamide]"
≤ 5,≤ 5,"Cc1nc(N2CCC3(CC2)CC3)c(C(=O)Nc2cccc([S@@](C)(=N)=O)c2)cc1Cl [Example 27, (S)-5-Chloro-6-methyl-N-(3-(S-methylsulfonimidoyl)phenyl)-2-(6-azaspiro[2.5]octan-6-yl)nicotinamide]"
5 to 50,5 to 50,"Cc1c(C(F)(F)F)nnc(N2CCCC(F)(F)CC2)c1C(=O)Nc1cccc([S@](C)(=N)=O)c1 [Example 28, (R)-3-(4,4-Difluoroazepan-1-yl)-5-methyl-N-(3-(S-methylsulfonimidoyl)phenyl)-6-(trifluoromethyl)pyridazine-4-carboxamide]"
5 to 50,5 to 50,"Cc1c(C(F)(F)F)nnc(N2CCCC(F)(F)CC2)c1C(=O)Nc1cccc([S@@](C)(=N)=O)c1 [Example 29, (S)-3-(4,4-Difluoroazepan-1-yl)-5-methyl-N-(3-(S-methylsulfonimidoyl)phenyl)-6-(trifluoromethyl)pyridazine-4-carboxamide]"
≤ 5,≤ 5,"C=CCCc1ccc(C(=O)Nc2cccc([S@@](C)(=N)=O)c2)c(N2CCCC(F)(F)CC2)n1 [Example 30, (S)-6-(3-Buten-1-yl)-2-(4,4-difluoroazepan-1-yl)-N-(3-(S-methylsulfonimidoyl)phenyl)nicotinamide]"
> 200,> 200,"Cc1c(C(F)(F)F)nnc(N2CCCC(F)(F)CC2)c1C(=O)Nc1ccnnc1 [Example 31, 3-(4,4-Difluoroazepan-1-yl)-5-methyl-N-(pyridazin-4-yl)-6-(trifluoromethyl)pyridazine-4-carboxamide]"
> 200,> 200,"O=C(Nc1ccnnc1)c1nnc(C(F)(F)F)cc1N1CCCC(F)(F)CC1 [Example 32, 4-(4,4-Difluoroazepan-1-yl)-N-(pyridazin-4-yl)-6-(trifluoromethyl)pyridazine-3-carboxamide]"
≤ 5,≤ 5,"Cc1cc(C(F)(F)F)nc(N2CCCC(F)(F)CC2)c1C(=O)Nc1cccc([S@](C)(=N)=O)c1 [Example 33, (R)-2-(4,4-Difluoroazepan-1-yl)-4-methyl-N-(3-(S-methylsulfonimidoyl)phenyl)-6-(trifluoromethyl)nicotinamide]"
≤ 5,≤ 5,"Cc1cc(C(F)(F)F)nc(N2CCCC(F)(F)CC2)c1C(=O)Nc1cccc([S@@](C)(=N)=O)c1 [Example 34, (S)-2-(4,4-Difluoroazepan-1-yl)-4-methyl-N-(3-(S-methylsulfonimidoyl)phenyl)-6-(trifluoromethyl)nicotinamide]"
≤ 5,≤ 5,"C=CCCc1ccc(C(=O)Nc2cccc([S@](C)(=N)=O)c2)c(N2CCCC(F)(F)CC2)n1 [Example 35, (R)-6-(But-3-en-1-yl)-2-(4,4-difluoroazepan-1-yl)-N-(3-(S-methylsulfonimidoyl)phenyl)nicotinamide]"
> 200,> 200,"O=C(Nc1cc[nH]c(=O)c1)c1nnc(C(F)(F)F)cc1N1CCCCCC1 [Example 36, 4-(Azepan-1-yl)-N-(2-oxo-1,2-dihydropyridin-4-yl)-6-(trifluoromethyl)pyridazine-3-carboxamide]"
> 200,> 200,"CS(=O)(=O)c1cccc(NC(=O)c2nnc(C(F)(F)F)cc2N2CCCCCC2)c1 [Example 37, 4-(Azepan-1-yl)-N-(3-(methylsulfonyl)phenyl)-6-(trifluoromethyl)pyridazine-3-carboxamide]"
> 200,> 200,"NC(=O)c1cccc(NC(=O)c2nnc(C(F)(F)F)cc2N2CCCC(F)(F)CC2)c1 [Example 38, N-(3-Carbamoylphenyl)-4-(4,4-difluoroazepan-1-yl)-6-(trifluoromethyl)pyridazine-3-carboxamide]"
> 200,> 200,"CS(=O)(=O)c1cccc(NC(=O)c2nnc(C(F)(F)F)cc2N2CCCC(F)(F)CC2)c1 [Example 39, 4-(4,4-Difluoroazepan-1-yl)-N-(3-(methylsulfonyl)phenyl)-6-(trifluoromethyl)pyridazine-3-carboxamide]"
> 200,> 200,"O=C(Nc1cc[nH]c(=O)c1)c1nnc(C(F)(F)F)cc1N1CCCC(F)(F)CC1 [Example 40, 4-(4,4-Difluoroazepan-1-yl)-N-(2-oxo-1,2-dihydropyridin-4-yl)-6-(trifluoromethyl)pyridazine-3-carboxamide]"
≤ 5,≤ 5,"Cc1c(Cl)c(C(F)(F)F)nc(N2CCCC(F)(F)CC2)c1C(=O)Nc1cccc(S(C)(=N)=O)c1 (stereo not drawn) [Example 41, 5-Chloro-2-(4,4-difluoroazepan-1-yl)-4-methyl-N-(3-(S-methylsulfonimidoyl)phenyl)-6-(trifluoromethyl)nicotinamide]"
≤ 5,≤ 5,"Cc1c(-c2ccccc2)cnc(N2CCCC(F)(F)CC2)c1C(=O)Nc1cccc(S(C)(=N)=O)c1 (stereo not drawn) [Example 42, 2-(4,4-Difluoroazepan-1-yl)-4-methyl-N-(3-(S-methylsulfonimidoyl)phenyl)-5-phenylnicotinamide]"
≤ 5,≤ 5,"CNCC(=O)N=[S@](C)(=O)c1cccc(NC(=O)c2c(N3CCCC(F)(F)CC3)nnc(C(F)(F)F)c2C)c1 [Example 43, (R)-3-(4,4-difluoroazepan-1-yl)-5-methyl-N-(3-(S-methyl-N-(methylglycyl)sulfonimidoyl)phenyl)-6-(trifluoromethyl)pyridazine-4-carboxamide]"
5 to 50,5 to 50,"CNCC(=O)N=[S@@](C)(=O)c1cccc(NC(=O)c2c(N3CCCC(F)(F)CC3)nnc(C(F)(F)F)c2C)c1 [Example 44, (S)-3-(4,4-difluoroazepan-1-yl)-5-methyl-N-(3-(S-methyl-N-(methylglycyl)sulfonimidoyl)phenyl)-6-(trifluoromethyl)pyridazine-4-carboxamide]"
50 to 100,50 to 100,"Cc1c(-c2cnn(C)c2)cnc(N2CCCC(F)(F)CC2)c1C(=O)Nc1cccc([S@](C)(=N)=O)c1 [Example 45, (R)-2-(4,4-difluoroazepan-1-yl)-4-methyl-5-(1-methyl-1H-pyrazol-4-yl)-N-(3-(S-methylsulfonimidoyl)phenyl)nicotinamide]"
5 to 50,5 to 50,"CNCC(=O)N=[S@](C)(=O)c1cccc(NC(=O)c2c(N3CCCC(F)(F)CC3)ncc(-c3cnn(C)c3)c2C)c1 [Example 46, (R)-2-(4,4-difluoroazepan-1-yl)-4-methyl-5-(1-methyl-1H-pyrazol-4-yl)-N-(3-(S-methyl-N-(methylglycyl)sulfonimidoyl)phenyl)nicotinamide]"
5 to 50,5 to 50,"Cc1c(-c2ccc3c(c2)OCCO3)cnc(N2CCCC(F)(F)CC2)c1C(=O)Nc1cccc([S@](C)(=N)=O)c1 [Example 47, (R)-2-(4,4-difluoroazepan-1-yl)-5-(2,3-dihydrobenzo[b][1,4]dioxin-6-yl)-4-methyl-N-(3-(S-methylsulfonimidoyl)phenyl)nicotinamide]"

# — patent US20250154109A1, “SODIUM CHANNEL BLOCKING COMPOUNDS, DERIVATIVES THEREOF, AND METHODS OF THEIR USE” (LATIGO BIOTHERAPEUTICS, INC, priority 2022, published 2025)
